Values quoted from earlier work in patent US20070134273A1, “Composition and method for the treatment of carcinoma” (priority 2004, published 2007).
Like-named read-outs stand apart in the source and are kept apart here.

Key:
[1] = test system: peripheral blood mononuclear cells, monocytes, and dendritic cells; conditions: in vitro and in vivo, versus imiquimod (Aldara R-837)
[2] = transurethral resection plus intravesical agent versus transurethral resection alone

Row | SMILES | studies with a significant reduction in tumor progression (bladder cancer; in vivo) | studies with a significant reduction in tumor recurrences (bladder cancer; in vivo) | potency in inducing cytokines relative to imiquimod [1] | studies with a significant reduction in tumor progression (bladder cancer; [2]) | studies with a significant reduction in tumor recurrences (bladder cancer; [2])
1 | S=P(N1CC1)(N1CC1)N1CC1 [thiotepa] | 0 of 3 | 6 of 10 | – | – | –
2 | CCOCc1nc2c(N)nc3ccccc3c2n1CC(C)(C)O [Resiquimod, 4-amino-2-ethoxymethyl-α, α-dimethyl-1H-imidazo[4,5-c]quinoline-1-ethanol] | – | – | about 100 times | – | –
3 | COc1cccc2c1C(=O)c1c(O)c3c(c(O)c1C2=O)C[C@@](O)(C(=O)CO)C[C@@H]3O[C@H]1C[C@H](N)[C@H](O)[C@H](C)O1 [doxorubicin] | – | – | – | 0 of 2 | 2 of 4
4 | CO[C@@]12[C@H](COC(N)=O)C3=C(C(=O)C(C)=C(N)C3=O)N1C[C@@H]1N[C@@H]12 [mitomycin] | – | – | – | 0 of 2 | 2 of 5
